Test results from patent US7335668B2, “Pharmaceutical composition for therapy of interstitial cystitis” (priority 2001, dated 2008).

How the values were obtained:
[1] = test system: capsaicin-sensitive sensory nerve; experiment: Plasma protein extravasation induced by capsaicin in the mouse bladder (Evans blue); assay type: in vivo; conditions: for reduction of capsaicin-induced increase in Evans blue dye content in the bladder: female Balb/c mice, 100 μL, about one hour before capsaicin 300 μg/kg i.v.; for intravesical concentration that inhibited extravascular leakage of plasma proteins (depressant action on capsaicin-sensitive sensory nerve): mouse bladder, infused intravesically
Method: In the experiment, four or five female Balb/c mice (Japan SLC, Inc.) per group were used. A catheter was inserted into the bladder of a mouse anesthetized with urethane (intraperitoneally administered with 0.15 ml of a 20% solution per mouse) via the urethra, and after emptying the bladder, a physiological saline or drug solution was injected. This catheter was prepared by blunting the tip of a 24-guage hypodermic needle and making a side hole at 2 mm from the newly prepared tip. About one hour after the instillation into the bladder, extravascular leakage of plasma proteins due to inflammatory reaction caused by stimulation of the capsaicin-sensitive sensory nerve according to the method of Maggi, et al. (Nauny-Schmiedeberg's Arch. Pharmacol., 336: pp.546-555(1987)). That is Evans blue (30 mg/kg) a dye bound by plasma proteins and capsaicin (300 μg/kg) were administered to the mouse from the tail vein, and precisely five minutes after the administration, the mouse was killed by cervical dislocation, then the bladder was removed. After removing urine and blood remaining in the tissue, the dye in the organs was quantitatively determined. Evans blue dye was extracted from the bladder by placing the tissue in 150 μL of formamide overnight, and was quantitatively determined by measuring light absorbance at a wavelength of 620 nm of 100 μL supernatant in a 96-well microplate. In addition, the content of Evans blue dye in one milligram of wet tissue was calculated. Moreover, the mouse intravesically instilled with physiological saline and intravenously administered with a capsaicin-free Evans blue solution served as a normal control. […] Capsaicin and formamide were purchased from Wako Pure Chemical Industries, Ltd., and Evans blue was purchased from Aldrich. […] Results were shown as [(mean values)±(standard errors of the mean)]. The Student's t-test was used to determine the significance of difference between the group of mice receiving […] saline and stimulated with capsaicin e and the group of normal control mice.

[2] = test system: rhythmic bladder contraction; conditions: as disclosed in International Patent Publication No. 96/20194; cited from earlier work

| SMILES | reduction of capsaicin-induced increase in Evans blue dye content in the bladder ([1]; injected intravesically at 1 μM) [%] | reduction of capsaicin-induced increase in Evans blue dye content in the bladder ([1]; injected intravesically at 10 μM) [%] | reduction of capsaicin-induced increase in Evans blue dye content in the bladder ([1]; injected intravesically at 100 μM) [%] | intravesical concentration that inhibited extravascular leakage of plasma proteins (depressant action on capsaicin-sensitive sensory nerve) [1] [µM] | effect on rat rhythmic bladder contraction [2] |
| --- | --- | --- | --- | --- | --- |
| O=C(O[C@H]1CN2CCC1CC2)N1CCc2ccccc2[C@@H]1c1ccccc1 [Compound 1, (+)-(1S,3′R)-quinuclidin-3′-yl 1-phenyl-1,2,3,4-tetrahydroisoquinoline-2-carboxylate] | 52 | 76 | 80 | ≥ 1 | – |
| O=C(OC1CN2CCC1CC2)N1CCc2ccccc2C1c1ccccc1 (stereo not drawn) [Compound A, quinuclidin-3′-yl 1-phenyl-1,2,3,4-tetrahydroisoquinoline-2-carboxylate] | – | – | – | ≥ 1 | inhibitory effects on rat rhythmic bladder contraction |
